Earlier results on one substance are cited in patent publication US10352931B2 (priority 2013, dated 2019).

For this data set, the target named is glutamate carboxypeptidase II (Homo sapiens, UniProt Q04609). To be noted: examples of inhibitors, Table 1.
Sequence of glutamate carboxypeptidase II (Q04609 whole entry, species assumed): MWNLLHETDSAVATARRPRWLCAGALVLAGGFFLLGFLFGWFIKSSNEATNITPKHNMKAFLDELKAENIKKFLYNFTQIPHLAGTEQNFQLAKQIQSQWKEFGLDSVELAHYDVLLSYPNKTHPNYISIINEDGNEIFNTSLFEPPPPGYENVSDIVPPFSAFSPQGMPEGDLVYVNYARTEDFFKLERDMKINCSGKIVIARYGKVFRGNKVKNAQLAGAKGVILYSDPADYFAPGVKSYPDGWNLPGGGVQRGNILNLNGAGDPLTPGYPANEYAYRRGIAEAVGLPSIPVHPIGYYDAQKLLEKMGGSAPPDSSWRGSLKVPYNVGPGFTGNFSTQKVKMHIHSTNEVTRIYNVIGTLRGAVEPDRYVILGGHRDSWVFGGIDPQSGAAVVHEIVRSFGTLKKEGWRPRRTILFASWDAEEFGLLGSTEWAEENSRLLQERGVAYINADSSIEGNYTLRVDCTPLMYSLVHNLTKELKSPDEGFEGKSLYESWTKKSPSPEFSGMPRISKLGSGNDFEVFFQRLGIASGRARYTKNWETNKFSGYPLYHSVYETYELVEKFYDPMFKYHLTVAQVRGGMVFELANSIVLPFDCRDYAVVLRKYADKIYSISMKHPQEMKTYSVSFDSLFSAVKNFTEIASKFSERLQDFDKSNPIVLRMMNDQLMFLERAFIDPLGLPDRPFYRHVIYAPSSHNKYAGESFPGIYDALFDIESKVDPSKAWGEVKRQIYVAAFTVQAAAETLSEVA

In the case of “(S)-2-(hydroxypentafluorophenylmethyl-phosphinoylmethyl)pentanedioic acid”, the IC50 is 34 nM.

Broadly, the IC50 is the concentration that inhibits the measured activity by half.
